The text below walks through data of publication PMC7400577 (Scientific Reports, 2020).

Each structure is given as a SMILES string. Numbering of substitutions follows the chain as printed. Read-outs that look alike come from different tables or passages of the source.

One test deals with T1, hGAT3 L314Q (Homo sapiens, UniProt P48066, L314Q).
T1 construct: expressed in transfected cells; host or cells: tsA201 cells, transient (PolyFect), pcDNA5/FRT vector
T1 sequence (P48066 1-632 L314Q): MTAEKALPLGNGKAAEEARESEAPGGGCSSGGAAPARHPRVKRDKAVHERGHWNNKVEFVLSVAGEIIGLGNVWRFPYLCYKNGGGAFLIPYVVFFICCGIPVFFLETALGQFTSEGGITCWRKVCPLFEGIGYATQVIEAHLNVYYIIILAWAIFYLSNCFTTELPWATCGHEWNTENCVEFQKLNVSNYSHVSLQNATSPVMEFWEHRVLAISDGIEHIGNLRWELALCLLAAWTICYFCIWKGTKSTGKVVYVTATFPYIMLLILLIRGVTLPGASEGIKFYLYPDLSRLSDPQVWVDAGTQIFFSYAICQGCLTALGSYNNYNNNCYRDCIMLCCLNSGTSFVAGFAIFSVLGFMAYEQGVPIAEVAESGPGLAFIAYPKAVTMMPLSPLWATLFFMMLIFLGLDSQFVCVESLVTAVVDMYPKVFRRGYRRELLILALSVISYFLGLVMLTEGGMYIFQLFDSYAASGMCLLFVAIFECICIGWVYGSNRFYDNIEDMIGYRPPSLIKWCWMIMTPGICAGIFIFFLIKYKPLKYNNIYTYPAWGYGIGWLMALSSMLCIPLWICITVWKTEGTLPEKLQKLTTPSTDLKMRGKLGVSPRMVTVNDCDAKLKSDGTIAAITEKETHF
As to the kind of experiment: [3H]GABA uptake inhibition at hGAT3 L314Q transiently expressed in tsA201 cells. In kind it is cell-based. As to conditions: 30 nM [3H]GABA, transient expression.

The target of a further test is T2, hGAT3 wt (Homo sapiens, UniProt P48066).
T2 construct: expressed in transfected cells; host or cells: tsA201 cells, transient (PolyFect), pcDNA5/FRT vector
T2 sequence (P48066 1-632): T1 sequence (P48066 1-632 L314Q) with Q314L
As to the kind of experiment: [3H]GABA uptake inhibition at wt hGAT3 transiently expressed in tsA201 cells. In kind it is cell-based. Particulars: 30 nM [3H]GABA, transient expression.

A further test relates to BGT1. Particulars: competitive BGT1 inhibitor; cited from earlier work.
The target in test [1] is T3, hBGT1 (Homo sapiens, UniProt P48065).
T3 construct: expressed in transfected cells
T3 sequence (P48065 1-614): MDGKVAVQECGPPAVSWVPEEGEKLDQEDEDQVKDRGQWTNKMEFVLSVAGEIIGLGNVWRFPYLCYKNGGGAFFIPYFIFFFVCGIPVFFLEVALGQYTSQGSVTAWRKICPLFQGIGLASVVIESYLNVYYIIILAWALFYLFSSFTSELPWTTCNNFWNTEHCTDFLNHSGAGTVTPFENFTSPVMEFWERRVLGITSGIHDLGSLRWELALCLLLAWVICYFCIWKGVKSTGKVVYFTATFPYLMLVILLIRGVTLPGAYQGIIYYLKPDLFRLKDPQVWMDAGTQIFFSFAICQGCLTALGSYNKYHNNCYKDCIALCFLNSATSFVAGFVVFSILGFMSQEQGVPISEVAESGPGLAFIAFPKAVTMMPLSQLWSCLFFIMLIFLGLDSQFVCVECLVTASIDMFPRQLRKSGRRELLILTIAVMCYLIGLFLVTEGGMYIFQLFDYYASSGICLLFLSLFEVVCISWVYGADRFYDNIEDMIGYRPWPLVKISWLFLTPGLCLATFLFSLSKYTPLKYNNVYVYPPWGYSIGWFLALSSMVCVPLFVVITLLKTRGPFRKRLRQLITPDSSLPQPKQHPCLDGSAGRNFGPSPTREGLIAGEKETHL
The format is cell-based. As for the experimental part:
(§1) CHO Flp-In and tsA201 cells were cultured at 37 °C in a humidified atmosphere of […] and 5% CO2. As previously described[38],[63], CHO Flp-In cells stably expressing the hGATs were cultured in Ham’s F12 Nutrient Mix supplemented with 10% FBS, 1% P/S and plasmocin (5 µg/mL) under the selection pressure of hygromycin B (200 µg/mL). DMEM with GlutaMAX-I supplemented with 10% FBS and 1% P/S was used as growth medium for the tsA201 cells, which were transfected with DNA constructs using PolyFect according to the manufacturer’s specifications (Qiagen, West Sussex, UK), but with half of the recommended reagent volumes.
(§2) Uptake assays were performed in PDL-coated white 96-well polystyrene cell culture microplates (PerkinElmer, Boston, MA, USA) as previously described[38],[63]. […] Assay buffer was HBSS supplemented with 20 mM HEPES, 1 mM CaCl2 and 1 mM MgCl2, pH 7.4. […] After termination, scintillation liquid (MicroScint-20, PerkinElmer) was added and the radioactivity measured in a TopCount NXT Microplate Scintillation Counter (PerkinElmer).
(§3) Data analysis and statistical evaluation were performed in GraphPad Prism 7.02 (GraphPad Software, San Diego, CA, USA). Concentration-uptake inhibition curves, generated from the radioligand-based uptake assays, were fitted by non-linear regression, using the equation for sigmoidal concentration–response with variable slope: Y = Bottom + (Top–Bottom)/(1 + 10^((logIC50 − X) × HillSlope)), where Y is the response, X is the logarithm of the concentration, Top and Bottom are the plateaus in same units as Y, logIC50 is the concentration giving a response halfway between Bottom and Top, and the HillSlope is the steepness of the curve. For the substrate concentration–response curves generated from the FMP assay, the same equation was used but with logEC50 instead for logIC50. Unless otherwise stated, data are presented as means ± S.E.M. of at least three independent pooled experiments performed in triplicates.

Another test deals with T4, hGAT3 (Homo sapiens, UniProt P48066).
T4 construct: expressed in transfected cells
T4 sequence (P48066 1-632): T1 sequence (P48066 1-632 L314Q) with Q314L
As to the kind of experiment: [3H]GABA uptake inhibition at hGAT3 stably expressed in CHO Flp-In cells. The format is cell-based. As to conditions: 30 nM [3H]GABA, 3 min, CHO Flp-In cells stably expressing hGAT3. The method, then: as §1, §2, §3

In test [2] the target is T3, hBGT1. As to the kind of experiment: FLIPR Membrane Potential (FMP) assay at hBGT1 stably expressed in CHO Flp-In cells. The format is cell-based. The method, then: The fluorescence-based FMP assay was performed as previously described, for the functional characterization of the electrogenic transport of substrates via hBGT1. Briefly, CHO Flp-In cells stably expressing hBGT1 or hGAT1 were plated (~ 50,000 cells/well) into black PDL-coated 96-well plates with clear bottom (VWR, Radnor, PA, USA). The next day, the growth medium was removed, and cells were washed once with HBSS assay buffer and FMP Blue Dye (Molecular Devices, Crawley, UK), added, and incubated. Ligands were added via the NOVOStar plate reader (BMG Labtech GmbH, Offenburg, Germany), preheated to 37 °C, approximately 10 min before reading of the cell plate. The fluorescence signals were measured for 33.8 s upon ligand addition using an emission and excitation wavelength of […], respectively. Electrogenic transport of substrates via hBGT1 will lead to an influx of the negatively charged FMP Blue dye that will bind to intracellular proteins and lipids resulting in an increase in the fluorescence signal.
as §3

Another test concerns the target T5, hGAT2 (Homo sapiens, UniProt Q9NSD5).
T5 construct: expressed in transfected cells
T5 sequence (Q9NSD5 1-602): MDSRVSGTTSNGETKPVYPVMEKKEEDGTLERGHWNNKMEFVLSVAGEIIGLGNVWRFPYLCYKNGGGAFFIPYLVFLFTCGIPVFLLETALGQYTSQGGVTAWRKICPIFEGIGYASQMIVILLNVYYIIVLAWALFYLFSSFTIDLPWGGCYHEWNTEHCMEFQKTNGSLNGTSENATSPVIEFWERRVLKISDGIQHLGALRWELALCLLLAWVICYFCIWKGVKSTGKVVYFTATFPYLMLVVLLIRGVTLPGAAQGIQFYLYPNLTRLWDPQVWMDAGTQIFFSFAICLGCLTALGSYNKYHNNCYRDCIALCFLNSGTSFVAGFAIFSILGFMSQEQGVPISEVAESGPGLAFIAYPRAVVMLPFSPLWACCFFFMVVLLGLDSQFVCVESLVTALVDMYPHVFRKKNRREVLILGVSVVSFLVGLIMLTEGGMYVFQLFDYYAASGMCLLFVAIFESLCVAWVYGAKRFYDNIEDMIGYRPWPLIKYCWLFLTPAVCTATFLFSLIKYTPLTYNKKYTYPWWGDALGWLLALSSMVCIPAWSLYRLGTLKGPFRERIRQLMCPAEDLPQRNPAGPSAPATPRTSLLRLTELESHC
As to the kind of experiment: [3H]GABA uptake inhibition at hGAT2 stably expressed in CHO Flp-In cells. In kind it is cell-based. As to conditions: 30 nM [3H]GABA, 3 min, CHO Flp-In cells stably expressing hGAT2; read-out: IC50 hGAT2. The method, then: as §1, §2, §3

A further test has as its target T6, hGAT1 (Homo sapiens, UniProt P30531).
T6 construct: expressed in transfected cells
As to the kind of experiment: [3H]GABA uptake inhibition at hGAT1 stably expressed in CHO Flp-In cells. In kind it is cell-based. As to conditions: 30 nM [3H]GABA, 3 min, CHO Flp-In cells stably expressing hGAT1; read-out: IC50 hGAT1. The method, then: as §1, §2, §3

T6 sequence (P30531 whole entry): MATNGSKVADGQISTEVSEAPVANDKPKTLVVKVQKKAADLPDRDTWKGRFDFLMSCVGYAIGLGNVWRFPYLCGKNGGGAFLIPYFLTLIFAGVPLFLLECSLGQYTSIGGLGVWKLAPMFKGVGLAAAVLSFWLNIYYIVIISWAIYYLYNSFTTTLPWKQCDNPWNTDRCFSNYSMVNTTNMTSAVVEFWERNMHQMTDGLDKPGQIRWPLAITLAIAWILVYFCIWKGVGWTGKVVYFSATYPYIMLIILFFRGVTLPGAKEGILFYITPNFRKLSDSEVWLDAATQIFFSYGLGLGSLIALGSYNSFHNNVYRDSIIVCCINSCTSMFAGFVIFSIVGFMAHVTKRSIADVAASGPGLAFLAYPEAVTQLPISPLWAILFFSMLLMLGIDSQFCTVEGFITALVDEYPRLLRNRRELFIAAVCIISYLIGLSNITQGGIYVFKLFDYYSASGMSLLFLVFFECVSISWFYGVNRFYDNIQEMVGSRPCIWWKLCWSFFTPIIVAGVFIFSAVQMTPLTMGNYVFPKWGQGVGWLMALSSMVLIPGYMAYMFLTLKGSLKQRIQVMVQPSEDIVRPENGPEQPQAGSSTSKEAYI

For the molecule `NCCCC(=O)O` [GABA, γ-Aminobutyric acid, reference compound], the IC50 at hGAT3 L314Q (read-out: IC50 GAT3 L314Q) was 5.2 µM; on hGAT3 L314Q (read-out: pIC50 ± S.E.M. GAT3 L314Q (converted)) it was 5.13 µM; on hGAT3 wt (read-out: IC50 GAT3 wt), 8.2 µM; on hGAT3 wt (read-out: pIC50 ± S.E.M. GAT3 wt (converted)), 7.94 µM.
For `N[C@@]12CC[C@H](C(=O)O)[C@@H]1C2` [compound 1], in the test with BGT1, the IC50 was 0.59 µM.
Broadly, the EC50 is the midpoint of the concentration-response curve. Low values mean greater potency, high ones weaker potency. On to `NC1=NCC(C(=O)O)CN1Cc1ccc(-c2ccccc2)cc1` (stereo not drawn) [compound 5], for which the IC50 at hBGT1 [1] (30 nM [3H]GABA, 3 min, CHO Flp-In cells stably expressing hBGT1, read-out: IC50 hBGT1) was 50 µM; on hGAT3 (read-out: IC50 hGAT3) it was 396 µM; at hGAT3 (read-out: pIC50 ± S.E.M. hGAT3 (converted)), 380 µM; on hGAT2, 382 µM; on hGAT1, 1040 µM. For the same molecule, on hBGT1 [1] ([3H]GABA uptake, CHO Flp-In cells), the “decrease of hBGT1 inhibitory potency compared to ATPCA” value is reported as 20–65 fold. In addition, the “subtype-selectivity for hBGT1 over the other hGATs” value on hBGT1 [1] (estimated from [3H]GABA uptake IC50 values, CHO Flp-In cells) was “at least 7 times”. The “substrate character at hBGT1 in FMP assay” value on hBGT1 [2] (concentration-dependent increase in fluorescence signal) is “substrates for hBGT1”. On hBGT1 [2] (hBGT1 stably expressed in CHO Flp-In cells, FMP assay), the “Mean Rmax as % of GABA Rmax ± S.E.M.” value is listed as 73 ± 2.8 % of GABA Rmax. The molecule further yielded an EC50 on hBGT1 [2] (hBGT1 stably expressed in CHO Flp-In cells, three independent experiments) of 194 µM.
